This is an account of results in article PMC8249783, “A novel multikinase inhibitor SKLB‐YTH‐60 ameliorates inflammation and fibrosis in bleomycin‐induced lung fibrosis mouse models” (Cell Proliferation, 2021).

Converted amounts (≈) assume the structure as drawn. Like-named read-outs stand apart in the source and are kept apart here.

Series [1] concerns lung MDSCs and macrophages. Kind of series: Flow cytometry of MDSCs and macrophages in lung tissue of BLM mice. The format is in vivo, C57BL/6 mice. The note with it: 30 mg·kg^−1 i.p. Here is the method:
Male C57BL/6 mice (8‐10 weeks old) were purchased from HFK Bioscience Co. Ltd. All animal experiments were permitted by the Institutional Animal Care and Treatment Committee of Sichuan University in China (New Permit Number: 20190524003). Lung fibrosis was induced using BLM treatment (2 mg·kg^−1). All C57BL/6 mice were divided into five groups (n = 10): a BLM + Nintedanib group (Nintedanib, 30 mg·kg^−1), a BLM + YTH‐60 group (YTH‐60, 15 mg·kg^−1 and 30 mg·kg^−1), a control group (Sham), and a bleomycin group (Vehicle). At the beginning, the mice were anaesthetized using 10% chloral hydrate, dissolved BLM with saline and administered intratracheally. To evaluate the preventive effect, the next day after BLM challenge, YTH‐60 and Nintedanib were administered intraperitoneally daily for 13 days (fibroproliferation) to the mice. All mice were sacrificed 24 hours after the last drug injection, the lungs and other organs were taken for the subsequent analysis. To test the therapeutic effect, after the 7th day of BLM treatment, mice were injected intraperitoneally with YTH‐60, Nintedanib and vehicle daily for 7 consecutive days (fibroproliferation).
We analysed the percentage of MDSCs and macrophages by Flow cytometry (FCM). ^22 Use scissors to cut approximately 30 mg of mouse lung tissues into small pieces and use 5 mL of collagenase‐IV with a concentration of 1 mg·mL^−1, digested at 37°C for at least 1 hour. Centrifuge at 400 g for 5 minutes and discard the supernatant. Then, add another 5 mL PBS to resuspend, after precipitation, taken the supernatant and mixed with the corresponding fluorochromium binding antibody, incubate for 30 minutes in the dark at 4°C (MDSCs with PE^−CD11b^−, FITC^−Gr1^− conjugated dual labelling and macrophages with PE^−F4/80^−, FITC^−CD11b^− conjugated dual labelling). The data were acquired with a FACS Canton II NovoCyte (ACEA).

Series [2] can be described thus: Determination of thermodynamic solubility. The format is physicochemical. The note with it: thermodynamic from solid, double testing. Here is the method:
Weigh about 1 mg of the test compound into 1.5 mL centrifuge tube and add 0.5 mL various solvents, sonicating for 5 minutes (if the compound is completely dissolved, then added again test compound until a little solid remains). Take the supernatant after centrifugation, diluting to a suitable concentration using and measuring absorbance values by UV spectrophotometer. Weigh 10 mg compound accurately of the test compound into 1.5 mL centrifuge tube and add 1.2 mL methanol solution to prepare 8.3 mg·mL^−1 mother solution. Take the above described mother liquor to prepare the solution in concentrations of 8.3, 4.2, 2.1, 1.0, 0.52, 0.26 mg·mL^−1 then measure absorbance value. With concentration c (mg·mL^−1) as the abscissa, absorbance A as the ordinate, mapping and fitting line to get the standard curve (The correlation coefficient should be greater than 0.998). Calculate solubility according to the standard curve of the linear equation.

Details of series [3]: method as in PMID 25474320. The note with it: 50 mg·kg^−1 oral administration; cited from earlier work.

As to `COC(=O)c1ccc2c(c1)NC(=O)/C2=C(\Nc1ccc(N(C)C(=O)CN2CCN(C)CC2)cc1)c1ccccc1` [Nintedanib, reference compound], in series [1] (day 14, BLM group 19.9%, sham 9.9%), the “percentage of CD11b^+F4/80^+ cells (macrophages) in lung” value is 13.89%. Also, the “percentage of CD11b^+Gr1^+ cells (MDSCs) in lung” value in series [1] (day 14, BLM group 20.5%, sham 5.14%) was determined as 10.46%. Besides, the solubility at 5 min in series [2] (organic solvent or mixture, Acetone, read-out: Solubility, Acetone) amounted to 9830 ± 420 µg/mL (≈ 18.2 mM); in series [2] (organic solvent or mixture, Acetonitrile, read-out: Solubility, Acetonitrile), 3520 ± 64 µg/mL (≈ 6.53 mM); in series [2] (organic solvent or mixture, Ethyl acetate, read-out: Solubility, Ethyl acetate), 9750 ± 350 µg/mL (≈ 18.1 mM); in series [2] (organic solvent or mixture, Ethyl alcohol, read-out: Solubility, Ethyl alcohol) it was 12500 ± 2200 µg/mL (≈ 23.1 mM); in series [2] (saline or isotonic, Normal saline, read-out: Solubility, Normal saline), 1930 ± 180 µg/mL (≈ 3.58 mM); in series [2] (Water, read-out: Solubility, Water), 280 ± 15 µg/mL (≈ 0.519 mM). Further, the mean bioavailability in series [3] was 11.9%.
